Source: patent US12569437B2, “Disease-site-specific liposomal formulation” (Osaka University, priority 2017, dated 2026)

Test system: rat monocrotaline (MCT)-induced severe heart failure (pulmonary hypertension) model
Assay: Survival rate in rat monocrotaline-induced pulmonary hypertension model
Assay type: in vivo
Details: 42 days after MCT; oral 50 mg/kg × twice/day from day 7
From the text: The produced Formulation 21 (ONO-1301Lipo formulation) as a test substance was intermittently administered intravenously once weekly to a rat monocrotaline (MCT)-induced severe heart failure (pulmonary hypertension) model from day 7 of the MCT administration, and the survival rate was compared with a group in which compound (A) (ONO-1301) was repeatedly orally administered; a group in which compound (A) was intermittently administered intravenously once weekly; and, as a positive control, a group in which an ET-1 antagonist (bosentan) was orally administered. In the control group, physiological saline (vehicle) was administered once weekly by intravenous administration.
For animals, Slc: Wistar male rats, 5 weeks old at the start of the test, and 66.4 to 90.8 g at arrival (Japan SLC, Inc.) were used. Monocrotaline (hereinafter referred to as “MCT”), lot No.: SLBG1999V (Sigma-Aldrich Corporation), was administered once subcutaneously at the back of the rats at a dose of 60 mg/kg. Six days after the MCT administration, the animals were divided into groups according to the weight stratification assignment method (Table 19).

COc1ccccc1Oc1c(NS(=O)(=O)c2ccc(C(C)(C)C)cc2)nc(-c2ncccn2)nc1OCCO [Bosentan]
Survival rate (%): 30%
